This is an account of results in patent US8933012B2, “Glycopeptide antibiotic derivative” (priority 2006, dated 2015).

A short description of data set [1]: Single-dose intravenous toxicity screening test in mouse. The format is in vivo. The following applies: single intravenous dose 30 mg/kg, compared with corresponding compound having -COOH at the C-terminal. The procedure:
The compounds of the invention were tested for water solubility and toxicity.

Data set [2] has as its system vancomycin-resistant enterococcus E. faecalis SR7914 (VanA). In words: In vitro antimicrobial activity, MIC by microdilution method. The format is cell-based. The procedure:
(§1) In Vitro Assay of Antimicrobial Activity
(§2) For several compounds of the invention, minimal inhibitory concentration (MIC) was determined by the microdilution method using cation adjusted Mueller-Hinton broth well known in the art.
Background: Broth dilution looks for growth in wells or tubes with falling amounts of substance.

In data set [3] the test system is methicillin-resistant Staphylococcus aureus S. aureus SR3637 (H-MRSA). Described as above. The format is cell-based. The procedure: as §1, §2

≈ marks a conversion by molar mass, not a printed value.

As for `CCNNC(=O)C1NC(=O)C2NC(=O)[C@H](NC(=O)[C@@H]3NC(=O)[C@H](CC(N)=O)NC(=O)C(NC(=O)[C@@H](CC(C)C)NC)[C@H](O)c4ccc(c(Cl)c4)Oc4cc3cc(c4OC3O[C@H](CO)[C@@H](O)[C@H](O)[C@H]3OC3C[C@](C)(NCc4cccc(NC(=O)c5ccc(OC(F)(F)F)cc5)c4)[C@H](O)[C@H](C)O3)Oc3ccc(cc3Cl)[C@H]2O)c2ccc(O)c(c2)-c2c(O)cc(O)cc21` (stereo partly drawn) [Example 2], the “histological findings in kidney etc.” value in data set [1] was “good histological findings”. For `CN[C@H](CC(C)C)C(=O)NC1C(=O)N[C@@H](CC(N)=O)C(=O)N[C@H]2C(=O)N[C@H]3C(=O)NC(C(=O)NC(C(=O)NO)c4cc(O)cc(O)c4-c4cc3ccc4O)[C@H](O)c3ccc(c(Cl)c3)Oc3cc2cc(c3OC2O[C@H](CO)[C@@H](O)[C@H](O)[C@H]2OC2C[C@](C)(NCCC3CCN(C(=O)Nc4ccc(OC(F)(F)F)cc4)CC3)[C@H](O)[C@H](C)O2)Oc2ccc(cc2Cl)[C@H]1O` (stereo partly drawn) [Example 4], the MIC in data set [2] was 4 µg/mL (≈ 2.25 µM); in data set [3], 0.5 µg/mL (≈ 0.281 µM).

For orientation: MIC means the lowest concentration that inhibits growth of the organism.
